The experiment deals with Neurogenic locus notch homolog protein 3 (Human, UniProt Q9UM47). Briefly: Biological Assay.
Neurogenic locus notch homolog protein 3, sequence (Q9UM47 whole entry): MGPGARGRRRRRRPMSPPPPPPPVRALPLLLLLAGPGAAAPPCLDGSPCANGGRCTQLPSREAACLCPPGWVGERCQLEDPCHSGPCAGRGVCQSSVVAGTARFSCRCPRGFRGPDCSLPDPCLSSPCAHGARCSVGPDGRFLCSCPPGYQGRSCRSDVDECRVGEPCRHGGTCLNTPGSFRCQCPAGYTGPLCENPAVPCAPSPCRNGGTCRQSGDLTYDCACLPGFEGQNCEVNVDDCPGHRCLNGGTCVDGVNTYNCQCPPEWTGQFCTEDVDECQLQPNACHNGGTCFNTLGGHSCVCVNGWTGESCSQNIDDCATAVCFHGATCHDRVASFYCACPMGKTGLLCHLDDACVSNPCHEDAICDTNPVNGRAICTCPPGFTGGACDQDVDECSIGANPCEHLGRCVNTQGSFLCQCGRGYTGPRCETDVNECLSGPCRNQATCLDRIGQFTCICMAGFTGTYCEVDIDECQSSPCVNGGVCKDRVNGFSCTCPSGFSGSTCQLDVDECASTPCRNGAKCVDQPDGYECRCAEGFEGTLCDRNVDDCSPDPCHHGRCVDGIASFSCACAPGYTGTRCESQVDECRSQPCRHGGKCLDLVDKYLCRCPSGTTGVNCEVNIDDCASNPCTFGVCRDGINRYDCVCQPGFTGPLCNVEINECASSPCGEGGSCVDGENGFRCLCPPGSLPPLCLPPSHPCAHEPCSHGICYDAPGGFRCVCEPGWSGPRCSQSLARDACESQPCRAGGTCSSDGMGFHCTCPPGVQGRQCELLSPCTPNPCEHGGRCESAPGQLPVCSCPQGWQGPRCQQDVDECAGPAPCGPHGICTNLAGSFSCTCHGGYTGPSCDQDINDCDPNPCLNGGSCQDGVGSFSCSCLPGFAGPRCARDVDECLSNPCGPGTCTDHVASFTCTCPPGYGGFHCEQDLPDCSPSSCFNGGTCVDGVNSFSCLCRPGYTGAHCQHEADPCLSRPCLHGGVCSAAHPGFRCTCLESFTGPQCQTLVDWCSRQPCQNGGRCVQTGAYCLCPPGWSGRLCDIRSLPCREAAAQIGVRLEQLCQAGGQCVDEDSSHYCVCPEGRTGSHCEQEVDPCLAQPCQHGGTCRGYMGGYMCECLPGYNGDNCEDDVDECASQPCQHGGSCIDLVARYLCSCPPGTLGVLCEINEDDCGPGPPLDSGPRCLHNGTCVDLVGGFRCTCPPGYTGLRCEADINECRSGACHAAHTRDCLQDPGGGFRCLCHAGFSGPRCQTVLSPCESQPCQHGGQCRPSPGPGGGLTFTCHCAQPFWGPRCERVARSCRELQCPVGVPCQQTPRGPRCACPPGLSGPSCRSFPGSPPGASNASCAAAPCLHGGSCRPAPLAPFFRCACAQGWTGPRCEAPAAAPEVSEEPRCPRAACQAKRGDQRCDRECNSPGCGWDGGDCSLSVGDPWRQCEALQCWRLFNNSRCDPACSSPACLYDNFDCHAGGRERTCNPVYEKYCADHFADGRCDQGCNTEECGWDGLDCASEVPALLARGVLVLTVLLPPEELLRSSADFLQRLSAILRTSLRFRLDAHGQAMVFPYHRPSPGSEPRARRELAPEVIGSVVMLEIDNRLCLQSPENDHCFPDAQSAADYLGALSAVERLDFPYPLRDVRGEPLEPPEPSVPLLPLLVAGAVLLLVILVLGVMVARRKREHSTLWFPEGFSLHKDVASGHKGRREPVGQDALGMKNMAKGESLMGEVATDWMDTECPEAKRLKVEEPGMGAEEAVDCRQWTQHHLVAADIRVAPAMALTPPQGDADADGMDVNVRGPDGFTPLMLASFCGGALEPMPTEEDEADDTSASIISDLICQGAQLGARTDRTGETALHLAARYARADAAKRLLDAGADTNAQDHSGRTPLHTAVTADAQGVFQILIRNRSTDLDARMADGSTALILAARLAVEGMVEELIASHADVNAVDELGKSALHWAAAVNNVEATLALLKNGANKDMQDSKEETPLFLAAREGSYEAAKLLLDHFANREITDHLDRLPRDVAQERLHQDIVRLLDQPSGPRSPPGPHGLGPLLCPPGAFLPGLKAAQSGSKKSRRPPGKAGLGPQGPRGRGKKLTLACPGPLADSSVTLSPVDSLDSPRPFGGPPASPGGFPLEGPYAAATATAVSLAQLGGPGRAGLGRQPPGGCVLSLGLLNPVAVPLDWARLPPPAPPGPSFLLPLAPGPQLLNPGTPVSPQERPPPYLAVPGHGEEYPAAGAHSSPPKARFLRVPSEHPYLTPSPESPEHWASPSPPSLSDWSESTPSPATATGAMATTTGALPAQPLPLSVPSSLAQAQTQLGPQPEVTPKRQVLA

Consider `COc1cccc2c1NC(=O)[C@@H](NC(=O)[C@H](CCC(F)(F)F)[C@H](CCC(F)(F)F)C(N)=O)N=C2c1cccc(C)c1` [US9273014, 29], for which half-maximal inhibition (IC50) required 5.7 nM.

In turn, `CC(C)c1cccc2c1NC(=O)[C@@H](NC(=O)[C@H](CCC(F)(F)F)[C@H](CCC(F)(F)F)C(N)=O)N=C2c1ccccc1` [US9273014, 13] displayed an IC50 of 4.9 nM.

Source of the values: BindingDB's records for patent US9273014 (Bristol-Myers Squibb Co., 2016).
